These results are taken from publication PMC12631831, “Painting Peptides With Antimicrobial Potency Through Deep Reinforcement Learning” (Advanced Science, 2025).

For one series, the system named is B.subtilis ATCC6633. Here is the method:
(§1) Four standard bacteria used for the MIC test were Escherichia coli ATCC25922, Pseudomonas aeruginosa ATCC9027, Staphylococcus aureus ATCC6538, and Bacillus subtilis ATCC6633. The testing procedures followed the Hancock methods.^[ [67] ^] The peptides were diluted in sterilized PBS to 512 µM as storage solutions. Then twofold gradient dilution was performed to make different concentrations (128, 64, 32, 16, 8, 4, 2, 1, 0.5, 0.25, and 0.125 µM) of AMPs. Each bacteria was incubated in LB broth at 37 °C until its absorbance at 625 nm reached 0.08–0.10, then diluted 10,000 times and added into a sterile 96‐well polypropylene plate (Grenier, #655201). A co‐incubation system included 100 µL peptide solution and 100 µL bacterial suspension.

A further series has as its system S.aureus ATCC6538. The following applies: ATCC6538, 18 h. Here is the method: as §1
In another series the test system is P.aeruginosa ATCC9027. The following applies: ATCC9027, 18 h. On the procedure:
as §1

A further series relates to E.coli ATCC25922. Particulars: ATCC25922, 18 h. Here is the method:
as §1

The next series has as its system human erythrocytes. Particulars: cited from earlier work.
In another series the test system is tumor cells. Particulars: ref DRACP; cited from earlier work.
In a further series the test system is rat erythrocytes. Briefly: Hemolysis assay. Particulars: rat RBC 10% in PBS, 37 °C, 1 min, 1-128 µM, absorbance 450 nm, triplicate, fitted with GraphPad Prism 8. Here is the method: In vitro hemolysis and cytotoxicity were measured by WuXi AppTec Co., ltd. The rat blood was collected and mixed in PBS, then centrifuged at 500 g for 5 mins to make the red blood cell solution (RBC, 10%). Two‐fold gradient dilution was performed to obtain different concentrations (128, 64, 32, 16, 8, 4, 2, and 1 µM) of AMP solutions. Then AMP solutions were added into 100 µL RBC to make the test solution and incubated at 37 °C for 1 min. The assay solution was centrifuged at 2500 g for 6 mins. After centrifugation, the 75 µL supernatant was placed into a 96‐well plate. PBS was used as the vehicle control and 0.1% Triton X‐100 was the positive control. The absorbance of the supernatant in each well was detected at 450 nm using EnVison (PerkinElmer) and the percentage of hemolysis was calculated as Equation (15). The HC25 value was fitted using GraphPad Prism 8. All tests were performed in triplicate. (15) Hemolysis%=AbsAMP−AbsPBS/AbsTritonX−100−AbsPBS×100

For another series, the system named is HEK293T cells. Nature of the series: Cytotoxicity assay (CellTiter-Glo). Type of series: cell-based, human. Particulars: 72 h, 1-128 µM, triplicate. On the procedure:
HEK293T cells were cultured in DMEM supplemented with 10% FBS and incubated at 37 °C with 5% CO2. After planting the cells into a 96‐well plate and incubated overnight, AMP solutions were added. The gradient dilution of AMPs followed the same setting as mentioned in the hemolysis assay. Staurosporine (STS) was used as a positive control and PBS as vehicle control. STS was diluted to 60, 12, 2.4, 0.48, 0.1, 0.02, 0.0038, and 0.0008 µM. After incubation for 72 h, the CellTiter‐Glo®Luminescent assay was performed to evaluate the cell viability. After equilibration to room temperature, the 96‐well plate containing treated cells was loaded with 100 µL CellTiter Glo (CTG, Promega) reagent each well. The plate was incubated for 30 mins, then detected by the EnVision system at a […]. Data were fitted and analyzed with GraphPad Prism 8. All tests were performed in triplicate.

Another series deals with rabbit erythrocytes. Particulars: ref DBAASP; cited from earlier work.

Like-named read-outs stand apart in the source and are kept apart here. Ends that are not written are not given here. A value given as a limit tells only on which side of the number the result lay.

Regarding “AFHHIFRGIVHVGKTIHRLVTG [Piscidin 1 [F1A], reference compound]”, the “MIC B.subtilis” value with B.subtilis ATCC6633 (ATCC6633, 18 h) came out at 4 µM. The “MIC S.aureus” value against S.aureus ATCC6538 was determined as 4 µM. For the same sequence, the “MIC P.aeruginosa” value against P.aeruginosa ATCC9027 is given as more than 128 µM. Also, the “MIC E.coli” value in the series on E.coli ATCC25922 is recorded as 16 µM. Further, the “Concentration for 100% hemolysis” value with human erythrocytes (ref DBAASP) is given as 100 µM.

Regarding “FFHHIFRAIVHVGKTIHRLVTG [Piscidin 1 [G8A], reference compound]”, the “MIC B.subtilis” value with B.subtilis ATCC6633 (ATCC6633, 18 h) worked out at 4 µM. For the same sequence, the “MIC S.aureus” value against S.aureus ATCC6538 stood at 4 µM. In addition, the “MIC P.aeruginosa” value in the series with P.aeruginosa ATCC9027 is more than 128 µM. Further, the “MIC E.coli” value in the series with E.coli ATCC25922 is on record as 16 µM. Moreover, the HC50 in the series on human erythrocytes (ref DBAASP) was 4 µM.

Take “GIKDWIKGAAKTLIKTVASHIANQ [Ascaphin-5, reference compound]”: the “MIC B.subtilis” value against B.subtilis ATCC6633 (initial sequences of A01-A10, same conditions as A01-A10) worked out at 16 µM. Also, the “MIC S.aureus” value against S.aureus ATCC6538 is listed as 4 µM. For the same sequence, in the series with P.aeruginosa ATCC9027, the “MIC P.aeruginosa” value turned out to be 128 µM. In the series on E.coli ATCC25922, the “MIC E.coli” value amounted to 16 µM. The HC50 in the series with human erythrocytes (ref DRAMP) is listed as more than 200 µM.

Regarding “GRKKRRQRRRGGWMWVTNLRTD [TAT-Ras-GAP317-326]”, the Hemolysis and cytotoxicity result in the series on tumor cells was “Enhances genotoxin-induced cytotoxicity in tumor cells”.

For KQQRKRGRVRKALLGKVIGFGGLKLKG [S08], in the series with rat erythrocytes, the “HC25 (concentration that causes 25% hemolysis)” value was more than 128 µM. Besides, in the series with HEK293T cells, the “CC50 (concentration that reduces viability by 50%)” value was more than 128 µM.

Take KWWKRRRWRWRWKKLWK [A04]: the “HC25 (concentration that causes 25% hemolysis)” value with rat erythrocytes is recorded as more than 128 µM. In addition, in the series with HEK293T cells, the “CC50 (concentration that reduces viability by 50%)” value was 49.63 µM.

For the sequence RGWFKVKRRYIKRFMRGLRGFHIKAA [R04], the “MIC B.subtilis ATCC6633” value in the series on B.subtilis ATCC6633 (ATCC6633, 18 h) stood at 1 µM. The “MIC S.aureus ATCC6538” value against S.aureus ATCC6538 came to 0.5 µM. Also, the “MIC P.aeruginosa ATCC9027” value in the series with P.aeruginosa ATCC9027 was determined as 8 µM. Besides, the “MIC E.coli ATCC25922” value in the series on E.coli ATCC25922 was found to be 2 µM. Moreover, the “CC50 (concentration that reduces viability by 50%)” value with HEK293T cells was determined as 23.59 µM.

RLKIHLYIKHYRRPKIVIRLKIK [R01]: the “MIC B.subtilis ATCC6633” value in the series with B.subtilis ATCC6633 (ATCC6633, 18 h) was more than 128 µM. For the same sequence, the “MIC S.aureus ATCC6538” value with S.aureus ATCC6538 came to 128 µM. Besides, the “MIC P.aeruginosa ATCC9027” value against P.aeruginosa ATCC9027 is more than 128 µM. The “MIC E.coli ATCC25922” value in the series on E.coli ATCC25922 was more than 128 µM.

For the sequence RRLRRLRILLFLKRVLRR [S02], the “HC25 (concentration that causes 25% hemolysis)” value with rat erythrocytes is recorded as more than 128 µM. Further, in the series on HEK293T cells, the “CC50 (concentration that reduces viability by 50%)” value is given as more than 128 µM.

Consider RWRKWRRWWWRKKKLGF [A06], for which the “HC25 (concentration that causes 25% hemolysis)” value with rat erythrocytes is listed as more than 128 µM. Further, the “CC50 (concentration that reduces viability by 50%)” value with HEK293T cells is listed as 71.09 µM.

Regarding RWWRGWWRRKLKKLRKKLKKKLKGM [A01], in the series on rat erythrocytes, the “HC25 (concentration that causes 25% hemolysis)” value is recorded as 14.66 µM. Besides, in the series on HEK293T cells, the “CC50 (concentration that reduces viability by 50%)” value is given as 11.62 µM.

Turning to SMWSGMWRRKLKKLRNALKKKLKGE [Latarcin-1], the “Concentration for 20% hemolysis” value in the series with rabbit erythrocytes is on record as 80 µM.

On to VKKRLLFRKPLLKLFLLFGRRLKA [S07], for which the “HC25 (concentration that causes 25% hemolysis)” value in the series on rat erythrocytes is given as more than 128 µM. Also, the “CC50 (concentration that reduces viability by 50%)” value in the series with HEK293T cells is 22.12 µM.

On to WIPKRFGIVIKRFYYRPFYPLFQ [R07], for which the “MIC B.subtilis ATCC6633” value against B.subtilis ATCC6633 (ATCC6633, 18 h) is more than 128 µM. The “MIC S.aureus ATCC6538” value in the series on S.aureus ATCC6538 came out at 128 µM. Also, in the series on P.aeruginosa ATCC9027, the “MIC P.aeruginosa ATCC9027” value is more than 128 µM. Further, the “MIC E.coli ATCC25922” value against E.coli ATCC25922 is more than 128 µM.

On to WKKWRWWWRWKKLWW [A10], for which the “HC25 (concentration that causes 25% hemolysis)” value in the series on rat erythrocytes worked out at 30.13 µM. In the series with HEK293T cells, the “CC50 (concentration that reduces viability by 50%)” value turned out to be 51.11 µM.

Regarding WRWKGRWRRKLKKLRWKLKKKLKLG [A03], the “HC25 (concentration that causes 25% hemolysis)” value in the series on rat erythrocytes is more than 128 µM. Besides, in the series on HEK293T cells, the “CC50 (concentration that reduces viability by 50%)” value stood at 21.67 µM.

In the case of WVQKKVIKLILKGLFALKLLG [S03], the “MIC B.subtilis ATCC6633” value in the series with B.subtilis ATCC6633 (ATCC6633, 18 h) was more than 128 µM. Besides, the “MIC S.aureus ATCC6538” value in the series with S.aureus ATCC6538 stood at 128 µM. Further, the “MIC P.aeruginosa ATCC9027” value in the series with P.aeruginosa ATCC9027 is more than 128 µM. Besides, the “MIC E.coli ATCC25922” value with E.coli ATCC25922 is more than 128 µM. Further, in the series with rat erythrocytes, the “HC25 (concentration that causes 25% hemolysis)” value is on record as more than 128 µM. In the series with HEK293T cells, the “CC50 (concentration that reduces viability by 50%)” value is reported as more than 64 µM.

With WWWHLRIWLKKKHQKAQWKKFGWFMKQHH [R05], the “MIC B.subtilis ATCC6633” value against B.subtilis ATCC6633 (ATCC6633, 18 h) came out at 8 µM. Also, the “MIC S.aureus ATCC6538” value in the series on S.aureus ATCC6538 came out at 2 µM. Moreover, in the series with P.aeruginosa ATCC9027, the “MIC P.aeruginosa ATCC9027” value turned out to be 128 µM. Besides, the “MIC E.coli ATCC25922” value against E.coli ATCC25922 was more than 128 µM.

With YKGFWRKIIYLIMMHAMKFMVWFLHLPKQ [R08], the “MIC B.subtilis ATCC6633” value against B.subtilis ATCC6633 (ATCC6633, 18 h) is more than 128 µM. Also, in the series with S.aureus ATCC6538, the “MIC S.aureus ATCC6538” value was more than 128 µM. In the series with P.aeruginosa ATCC9027, the “MIC P.aeruginosa ATCC9027” value was more than 128 µM. Further, the “MIC E.coli ATCC25922” value in the series with E.coli ATCC25922 is more than 128 µM.

On to YWRRWYIWRWRRWRWLRYI [R03], for which the “MIC B.subtilis ATCC6633” value in the series with B.subtilis ATCC6633 (ATCC6633, 18 h) was 128 µM. Also, the “MIC S.aureus ATCC6538” value with S.aureus ATCC6538 was found to be 128 µM. In addition, the “MIC P.aeruginosa ATCC9027” value against P.aeruginosa ATCC9027 is more than 128 µM. Moreover, the “MIC E.coli ATCC25922” value in the series with E.coli ATCC25922 was more than 128 µM.

What is called HC50 is the concentration giving 50% haemolysis.
